We go through 23 compounds from patent publication US9309242B2, “Substituted pyrido[2,3-b]pyrazines as FGFR kinase inhibitors” (priority 2011, dated 2016).

For one series, the target named is FGFR1 (h) (Homo sapiens, UniProt P11362). Nature of the series: FGFR1 (enzymatic assay), TR-FRET. Format: biochemical. The settings on record: read-out: FGFR 1 pIC50 (converted).
The subject of series [1] is Ba/F3-FGFR3-transfected cells. Description: Ba/F3-FGFR3 (plus IL3) cellular proliferation assay, counterscreen with 10 ng/ml murine IL3. Format: cell-based. The settings on record: plus IL3 (10 ng/ml murine IL3, counterscreen); read-out: BAF3-FGFR3 (PLUS IL3) pIC50 (converted). The method, boiled down:
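Read-out: resazurin-based Alamar Blue fluorescence (ex 540 nm, em 590 nm) after a 4 h dye incubation. FGFR3-transfected Ba/F3 cells, 20000 per well, are exposed to compound for 24 h at 37° C in RPMI-1640/10% FBS. Plus-IL3 counterscreen adds 10 ng/ml murine IL3.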
(In general: Counterscreens check selectivity or assay interference.)

Series [2] deals with Ba/F3-FGFR4-transfected cells (Homo sapiens, UniProt P22455). Description: Ba/F3-FGFR4 cellular proliferation assay, Alamar Blue. Format: cell-based. Put shortly:
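Proliferation of Ba/F3-FGFR4-transfected cells is gauged by Alamar Blue (resazurin) fluorescence after 24 hours of compound treatment in phenol red free RPMI-1640 with 10% FBS.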
(In general: Alamar Blue is a resazurin reagent that responds to reducing activity.)

A value given as a limit tells only on which side of the number the result lay.

Ba/F3-FGFR4-transfected cells, sequence (P22455 whole entry, change not shown): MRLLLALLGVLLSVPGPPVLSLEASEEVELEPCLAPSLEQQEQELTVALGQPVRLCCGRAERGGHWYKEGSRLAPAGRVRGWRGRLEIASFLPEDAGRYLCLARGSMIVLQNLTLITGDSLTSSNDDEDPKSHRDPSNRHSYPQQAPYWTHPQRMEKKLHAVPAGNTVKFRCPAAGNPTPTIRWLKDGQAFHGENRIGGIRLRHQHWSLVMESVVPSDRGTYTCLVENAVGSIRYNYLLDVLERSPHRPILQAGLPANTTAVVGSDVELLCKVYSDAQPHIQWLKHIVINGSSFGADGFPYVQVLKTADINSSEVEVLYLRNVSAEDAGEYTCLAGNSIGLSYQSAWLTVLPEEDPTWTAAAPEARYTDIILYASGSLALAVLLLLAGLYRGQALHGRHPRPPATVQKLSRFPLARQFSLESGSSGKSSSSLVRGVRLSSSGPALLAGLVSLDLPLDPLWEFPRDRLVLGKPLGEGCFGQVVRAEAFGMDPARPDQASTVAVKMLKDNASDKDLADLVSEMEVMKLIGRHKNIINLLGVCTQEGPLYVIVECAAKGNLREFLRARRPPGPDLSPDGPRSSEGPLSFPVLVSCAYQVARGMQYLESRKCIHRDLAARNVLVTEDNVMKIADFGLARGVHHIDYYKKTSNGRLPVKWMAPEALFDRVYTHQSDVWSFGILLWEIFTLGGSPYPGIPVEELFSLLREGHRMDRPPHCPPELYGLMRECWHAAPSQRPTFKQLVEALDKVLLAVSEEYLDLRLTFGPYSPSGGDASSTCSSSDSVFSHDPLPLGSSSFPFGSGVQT
FGFR1 (h), sequence (P11362 22-822): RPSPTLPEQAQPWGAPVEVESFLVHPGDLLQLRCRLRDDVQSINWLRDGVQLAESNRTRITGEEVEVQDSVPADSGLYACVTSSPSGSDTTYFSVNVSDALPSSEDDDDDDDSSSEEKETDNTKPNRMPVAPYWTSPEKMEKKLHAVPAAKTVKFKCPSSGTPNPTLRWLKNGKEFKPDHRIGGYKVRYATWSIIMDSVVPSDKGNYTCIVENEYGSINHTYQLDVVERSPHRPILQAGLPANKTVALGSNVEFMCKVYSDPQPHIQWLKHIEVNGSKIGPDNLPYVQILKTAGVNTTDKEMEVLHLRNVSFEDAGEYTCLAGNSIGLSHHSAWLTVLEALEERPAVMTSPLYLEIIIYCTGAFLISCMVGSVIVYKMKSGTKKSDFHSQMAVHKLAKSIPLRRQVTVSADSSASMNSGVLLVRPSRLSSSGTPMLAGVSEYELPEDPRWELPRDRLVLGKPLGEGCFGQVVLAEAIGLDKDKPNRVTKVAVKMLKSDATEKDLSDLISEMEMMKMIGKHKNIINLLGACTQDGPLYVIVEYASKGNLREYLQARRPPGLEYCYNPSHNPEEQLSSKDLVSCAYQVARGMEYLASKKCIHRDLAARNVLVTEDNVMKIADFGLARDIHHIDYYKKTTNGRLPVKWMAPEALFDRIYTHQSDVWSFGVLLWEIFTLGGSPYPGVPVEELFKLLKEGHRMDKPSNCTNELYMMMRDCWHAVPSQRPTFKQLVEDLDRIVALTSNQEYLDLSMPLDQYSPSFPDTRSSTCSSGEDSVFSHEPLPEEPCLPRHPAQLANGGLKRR

Broadly, the melting point is the temperature of the solid-liquid transition. For the compound `COc1cc(OC)c(F)c(N(CCNC2COC2)c2ccc3ncc(-c4cnn(C)c4)nc3n2)c1F` (single isomer, unassigned) [Compound 162], the melting point came out at 183 °C. Further, the IC50 on FGFR1 (h) is 1.17 nM. Besides, the IC50 in series [1] was above 10000 nM. Further, in series [2], the “BAF3-FGFR4 pIC50” value is recorded as around 7.56.

On to `COc1cc(/N=c2\ccc3ncc(-c4cnn(C)c4)nc3n2CC2CCOC2)c(F)c(OC)c1` (single isomer, unassigned) [Compound 169], for which the melting point is 80 °C. Moreover, the IC50 at FGFR1 (h) is around 0.933 nM. Also, in series [1], the IC50 was above 10000 nM. Also, the “BAF3-FGFR4 pIC50” value in series [2] is 7.20.

For `COc1cc(/N=c2\ccc3ncc(-c4cnn(CC(C)(C)O)c4)nc3n2CC(C)(C)O)c(F)c(OC)c1` (single isomer, unassigned) [Compound 207], the melting point was 154 °C. Further, on FGFR1 (h), the IC50 is 0.813 nM. Besides, the IC50 in series [1] is above 10000 nM. Also, the “BAF3-FGFR4 pIC50” value in series [2] is listed as 6.69.

Turning to `COc1cc(OC)c(F)c(N(CC2CCC(=O)N2CCO)c2ccc3ncc(-c4cnn(C)c4)nc3n2)c1` (single isomer, unassigned) [Compound 218], the melting point was found to be 130 °C. For the same compound, the IC50 on FGFR1 (h) is 3.24 nM. The IC50 in series [1] was above 10000 nM. In addition, the “BAF3-FGFR4 pIC50” value in series [2] was determined as 6.99.

`COc1cc(OC)c(F)c(/N=c2\ccc3ncc(-c4cnn(C)c4)nc3n2CC2CCOC2)c1F` (stereo not drawn) [Compound 154] gave a melting point of 226 °C. Moreover, the IC50 on FGFR1 (h) is 0.661 nM. The IC50 in series [1] was above 10000 nM. Moreover, in series [2], the “BAF3-FGFR4 pIC50” value is around 7.6.

Turning to `COc1cc(OC)c(F)c(/N=c2\ccc3ncc(-c4cnn(C)c4)nc3n2CCN(C2COC2)C2COC2)c1F` [Compound 164], the melting point stood at 218 °C. For the same compound, on FGFR1 (h), the IC50 is 1.02 nM. In addition, in series [1], the IC50 was above 10000 nM. The “BAF3-FGFR4 pIC50” value in series [2] is around 7.66.

Compound `COc1cc(OC)c(F)c(N(CC#N)c2ccc3ncc(-c4cnn(C)c4)nc3n2)c1F` [Compound 173] displayed a melting point of 250 °C. The IC50 at FGFR1 (h) is around 0.977 nM. Further, the IC50 in series [1] was above 10000 nM. The “BAF3-FGFR4 pIC50” value in series [2] was found to be 7.61.

In turn, `COc1cc(OC)cc(N(Cc2noc(C)n2)c2ccc3ncc(-c4cnn(C)c4)nc3n2)c1` [Compound 186] showed a melting point of 177 °C. Also, at FGFR1 (h), the IC50 was 2.45 nM. Also, the IC50 in series [1] was above 10000 nM. Also, the “BAF3-FGFR4 pIC50” value in series [2] stood at 6.36.

`COc1cc(OC)cc(N(Cc2nnc(N)o2)c2ccc3ncc(-c4cnn(C)c4)nc3n2)c1` [Compound 188] registered a melting point of 246 °C. Besides, on FGFR1 (h), the IC50 was 1.66 nM. Further, in series [1], the IC50 was above 10000 nM. In addition, the “BAF3-FGFR4 pIC50” value in series [2] worked out at 6.62.

`COc1cc(OC)c(F)c(N(CC2CCC(=O)N2CCO)c2ccc3ncc(-c4cnn(C)c4)nc3n2)c1` (stereo not drawn) [Compound 194] registered a melting point of 102 °C. Moreover, the IC50 on FGFR1 (h) is 11.2 nM. Further, the IC50 in series [1] is above 10000 nM. The “BAF3-FGFR4 pIC50” value in series [2] worked out at 5.50.

In turn, `COc1cc(OC)cc(N(Cc2nnco2)c2ccc3ncc(-c4cnn(C)c4)nc3n2)c1` [Compound 217] showed a melting point of 240 °C. Also, the IC50 at FGFR1 (h) was 7.94 nM. For the same compound, in series [1], the IC50 is above 10000 nM. For the same compound, in series [2], the “BAF3-FGFR4 pIC50” value came out at 6.03.

`COc1cc(OC)c(F)c(N(CC(=O)c2cnn(C)c2)c2ccc3ncc(-c4cnn(C)c4)nc3n2)c1` [Compound 225]: the values for the IC50 (at FGFR1 (h); in series [1]) were 6.61 nM and above 10000 nM, respectively. Further, the “BAF3-FGFR4 pIC50” value in series [2] worked out at 5.96.

For `COc1cc(OC)cc(N(Cc2ncc[nH]2)c2ccc3ncc(-c4cnn(C5CCNCC5)c4)nc3n2)c1` [Compound 227], the figures for the IC50 (on FGFR1 (h); in series [1]) were 0.562 nM and above 10000 nM, respectively. In series [2], the “BAF3-FGFR4 pIC50” value stood at 6.91.

Take `COc1cc(OC)cc(N(Cc2n[nH]c(=O)o2)c2ccc3ncc(-c4cnn(C)c4)nc3n2)c1` [Compound 229]: the melting point worked out at 232 °C. For the same compound, the IC50 at FGFR1 (h) is 4.9 nM. Besides, in series [1], the IC50 is above 10000 nM. The “BAF3-FGFR4 pIC50” value in series [2] came out at 5.45.

As to `COc1cc(OC)c(F)c(N(CC(=O)NCCO)c2ccc3ncc(-c4cnn(C)c4)nc3n2)c1` [Compound 230], the melting point was 258 °C. Besides, at FGFR1 (h), the IC50 is 7.59 nM. Further, the IC50 in series [1] was above 10000 nM. The “BAF3-FGFR4 pIC50” value in series [2] is listed as 5.73.

The compound `COc1cc(OC)c(F)c(N(CC(=O)O)c2ccc3ncc(-c4cnn(C)c4)nc3n2)c1` [Compound 231] came in with a melting point above 260 °C. Besides, on FGFR1 (h), the IC50 was 4.79 nM. Further, in series [1], the IC50 was above 10000 nM. Besides, the “BAF3-FGFR4 pIC50” value in series [2] was determined as 5.02.

Turning to `COc1cc(OC)c(F)c(N(Cc2nc(CO)c[nH]2)c2ccc3ncc(-c4cnn(C)c4)nc3n2)c1` [Compound 232], the IC50 on FGFR1 (h) was 0.813 nM; in series [1], above 10000 nM. The “BAF3-FGFR4 pIC50” value in series [2] came to 6.96.

The compound `COc1cc(OC)c(F)c(N(CCO)c2ccc3ncc(-c4cnn(CCO)c4)nc3n2)c1` [Compound 233] displayed a melting point of 194 °C. In addition, the IC50 on FGFR1 (h) is 0.759 nM. In series [1], the IC50 was above 10000 nM. The “BAF3-FGFR4 pIC50” value in series [2] amounted to 6.91.

For the compound `COc1cc(OC)c(F)c(N(Cc2nc(Br)c[nH]2)c2ccc3ncc(-c4cnn(C)c4)nc3n2)c1` [Compound 238], the IC50 on FGFR1 (h) is 0.479 nM; in series [1], above 10000 nM. Besides, the “BAF3-FGFR4 pIC50” value in series [2] is reported as 8.06.

On to `COc1cc(OC)c(F)c(N(Cc2ncc[nH]2)c2ccc3ncc(-c4cnn(CC(C)(C)O)c4)nc3n2)c1` [Compound 240], for which the IC50 on FGFR1 (h) was 0.912 nM; in series [1] it was above 10000 nM. Further, in series [2], the “BAF3-FGFR4 pIC50” value was 7.87.

Take `COc1cc(OC)c(F)c(N(CCNC(C)=O)c2ccc3ncc(-c4cnn(C)c4)nc3n2)c1` [Compound 242]: the IC50 at FGFR1 (h) was 1.17 nM; in series [1], above 10000 nM. Moreover, the “BAF3-FGFR4 pIC50” value in series [2] is recorded as 7.22.

For the compound `COc1cc(/N=c2\ccc3ncc(-c4cnn(C)c4)nc3n2CC2CCC(=O)N2)cc(OC)c1` (stereo not drawn) [Compound 248], the figures for the IC50 (at FGFR1 (h); in series [1]) were 5.13 nM and above 10000 nM, respectively. In series [2], the “BAF3-FGFR4 pIC50” value was determined as 6.25.

On to `COc1cc(OC)c(F)c(N(Cc2n[nH]c(=O)o2)c2ccc3ncc(-c4cnn(C)c4)nc3n2)c1` [Compound 284], for which the IC50 on FGFR1 (h) was 1.58 nM; in series [1], above 10000 nM. Further, in series [2], the “BAF3-FGFR4 pIC50” value is given as 6.01.
